What follows are molecules tested against human V1a receptor (Homo sapiens (Human), UniProt P37288) (assay: human V1a receptor binding studies (3H-Vasopressin, SPA beads)). Settings: membranes of HEK293 cells transiently transfected with human V1a receptor, Ki by Cheng-Prusoff.
Procedure: The human V1a receptor was cloned by RT-PCR from total human liver RNA. The coding sequence was subcloned in an expression vector after sequencing to confirm the identity of the amplified sequence. […] Cell membranes were prepared from HEK293 cells transiently transfected with the expression vector and grown in 20 liter fermenters with the following protocol.
50 g of cells are re-suspended in 30 ml freshly prepared ice cold Lysis buffer ([…] HEPES. 1 mM EDTA, 10 mM MgCl2 adjusted to pH=7.4+complete cocktail of protease inhibitor (Roche Diagnostics)). Homogenized with Polytron for 1 min and sonicated on ice for 2×2 minutes at 80% intensity (Vibracell sonicator). The preparation is centrifuged 20 min at 500 g at 4° C., the pellet is discarded and the supernatant centrifuged 1 hour at 43'000 g at 4° C. (19'000 rpm). The pellet is re-suspended in 12.5 ml Lysis buffer+12.5 ml Sucrose 20% and homogenized using a Polytron for 1-2 min. The protein concentration is determined by the Bradford method and aliquots are stored at −80° C. until use. For binding studies 60 mg Yttrium silicate SPA beads (Amersham) are mixed with an aliquot of membrane in binding buffer (50 mM Tris, 120 mM NaCl, 5 mM KCl, 2 mM CaCl2, 10 mM MgCl) for 15 minutes with mixing. 50 μl of bead/membrane mixture is then added to each well of a 96 well plate, followed by […] of 4 nM 3H-Vasopressin (American Radiolabeled Chemicals). For total binding measurement 100 μl of binding buffer are added to the respective wells, for non-specific binding 100 μl of […] cold vasopressin and for compound testing 100 μl of a serial dilution of each compound in 2% DMSO. The plate is incubated 1 h at room temperature, centrifuged 1 min at 1000 g and counted on a Packard Top-Count. Non-specific binding counts are subtracted from each well and data is normalized to the maximum specific binding set at 100%. To calculate an IC 50 the curve is fitted using a non-linear regression model (XLfit) and the Ki is calculated using the Cheng-Prussoff equation.

human V1a receptor, sequence (P37288 whole entry): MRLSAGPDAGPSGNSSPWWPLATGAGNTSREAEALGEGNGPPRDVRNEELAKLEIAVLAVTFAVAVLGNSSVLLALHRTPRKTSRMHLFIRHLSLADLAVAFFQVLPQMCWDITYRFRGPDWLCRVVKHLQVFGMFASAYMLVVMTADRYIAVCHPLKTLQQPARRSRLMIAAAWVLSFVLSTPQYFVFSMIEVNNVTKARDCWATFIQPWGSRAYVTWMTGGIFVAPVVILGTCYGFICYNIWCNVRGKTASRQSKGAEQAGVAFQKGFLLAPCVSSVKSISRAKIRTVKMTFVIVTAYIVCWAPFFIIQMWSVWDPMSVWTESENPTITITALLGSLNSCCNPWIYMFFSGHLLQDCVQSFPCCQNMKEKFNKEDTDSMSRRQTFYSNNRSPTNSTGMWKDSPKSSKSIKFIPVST

pKi hV1a | Compound
8.6 | Cc1ccc2c(c1)C[C@]1(C2)OC(N2CCC3(CC2)OC(=O)c2ccccc23)=NC1=O (stereo in doubt) [Example 24, (−)-1′-[5-methyl-4′-oxo-1,3-dihydro-4′H-spiro[indene-2,5′,-[1,3]oxazol]-2′-yl]-3H-spiro[2-benzofuran-1,4′-piperidin]-3-one]
9.5 | O=C1N=C(N2CCC3(CC2)OCc2ccccc23)OC12Cc1ccccc1C2 [Example 1, 2′-(1′H,3H-spiro[2-benzofuran-1,4′-piperidin]-1′-yl)-1,3-dihydro-4′H-spiro[indene-2,5′-[1,3]oxazol]-4′-one]
9.3 | CC1(C)OC2(CCN(C3=NC(=O)C4(Cc5ccccc5C4)O3)CC2)c2ccccc21 [Example 3, 2′-(3,3-dimethyl-1′H,3H-spiro[2-benzofuran-1,4′-piperidin]-1′-yl)-1,3-dihydro-4′H-spiro[indene-2,5′-[1,3]oxazol]-4′-one]
8.2 | Cc1cccc2c1COC21CCN(C2=NC(=O)C3(Cc4ccccc4C3)O2)CC1 [Example 4]
8.0 | Cc1cccc2c1C(=O)OC21CCN(C2=NC(=O)C3(Cc4ccccc4C3)O2)CC1 [Example 5, 4-methyl-1′-(4′-oxo-1,3-dihydro-4′H-spiro[indene-2,5′-[1,3]oxazol]-2′-yl)-3H-spiro[2-benzofuran-1,4′-piperidin]-3-one]
8.8 | Cc1ccc2c(c1)C(=O)OC21CCN(C2=NC(=O)C3(Cc4ccccc4C3)O2)CC1 [Example 6, 5-methyl-1′-(4′-oxo-1,3-dihydro-4′H-spiro[indene-2,5′-[1,3]oxazol]-2′-yl)-3H-spiro[2-benzofuran-1,4′-piperidin]-3-one]
8.8 | Cc1ccc2c(c1)C1(CCN(C3=NC(=O)C4(Cc5ccccc5C4)O3)CC1)OC2=O [Example 7, 6-methyl-1′-(4′-oxo-1,3-dihydro-4′H-spiro[indene-2,5′-[1,3]oxazol]-2′-yl)-3H-spiro[2-benzofuran-1,4′-piperidin]-3-one]
8.5 | COc1ccc2c(c1)C(=O)OC21CCN(C2=NC(=O)C3(Cc4ccccc4C3)O2)CC1 [Example 8, 5-methoxy-1′-(4′-oxo-1,3-dihydro-4′H-spiro[indene-2,5′-[1,3]oxazol]-2′-yl)-3H-spiro[2-benzofuran-1,4′-piperidin]-3-one]
9.7 | O=C1OC2(CCN(C3=NC(=O)C4(Cc5ccccc5C4)O3)CC2)c2ccc(O)cc21 [Example 9, 5-hydroxy-1′-(4′-oxo-1,3-dihydro-4′H-spiro[indene-2,5′-[1,3]oxazol]-2′-yl)-3H-spiro[2-benzofuran-1,4′-piperidin]-3-one]
8.6 | COc1ccc2c(c1)C1(CCN(C3=NC(=O)C4(Cc5ccccc5C4)O3)CC1)OC2=O [Example 10, 6-methoxy-1′-(4′-oxo-1,3-dihydro-4′H-spiro[indene-2,5′-[1,3]oxazol]-2′-yl)-3H-spiro[2-benzofuran-1,4′-piperidin]-3-one]
7.5 | COc1cc2c(cc1OC)C1(CCN(C3=NC(=O)C4(Cc5ccccc5C4)O3)CC1)OC2=O [Example 12, 5,6-dimethoxy-1′-(4′-oxo-1,3-dihydro-4′H-spiro[indene-2,5′-[1,3]oxazol)-2′-yl)-3H-spiro[2-benzofuran-1,4′-piperidin]-3-one]
8.2 | O=C1OC2(CCN(C3=NC(=O)C4(Cc5ccccc5C4)O3)CC2)c2cc(O)c(O)cc21 [Example 13, 5,6-dihydroxy-1′-(4′-oxo-1,3-dihydro-4′H-spiro[indene-2,5′-[1,3]oxazol]-2′-yl)-3H-spiro[2-benzofuran-1,4′-piperidin]-3-one]
8.5 | O=C1OC2(CCN(C3=NC(=O)C4(Cc5ccccc5C4)O3)CC2)c2cccc(F)c21 [Example 14, 4-fluoro-1′-(4′-oxo-1,3-dihydro-4′H-spiro[indene-2,5′-[1,3]oxazol]-2′-yl)-3H-spiro[2-benzofuran-1,4′-piperidin]-3-one]
8.9 | O=C1OC2(CCN(C3=NC(=O)C4(Cc5ccccc5C4)O3)CC2)c2ccc(F)cc21 [Example 15, 5-fluoro-1′-(4′-oxo-1,3-dihydro-4′H-spiro[indene-2,5′-[1,3]oxazol]-2′-yl)-3H-spiro[2-benzofuran-1,4′-piperidin]-3-one]
8.7 | O=C1OC2(CCN(C3=NC(=O)C4(Cc5ccccc5C4)O3)CC2)c2c(F)cccc21 [Example 16, 7-fluoro-1′-(4′-oxo-1,3-dihydro-4′H-spiro[indene-2,5′-[1,3]oxazol]-2′-yl)-3H-spiro[2-benzofuran-1,4′-piperidin]-3-one]
8.6 | O=C1OC2(CCN(C3=NC(=O)C4(Cc5ccccc5C4)O3)CC2)c2cc(Cl)ccc21 [Example 17, 6-chloro-1′-(4-oxo-1,3-dihydro-4′H-spiro[indene-2,5′-[1,3]oxazol]-2′-yl)-3H-spiro[2-benzofuran-1,4′-piperidin]-3-one]
8.4 | O=C1OC2(CCN(C3=NC(=O)C4(Cc5ccccc5C4)O3)CC2)c2ccc(Br)cc21 [Example 18, 5-bromo-1′-(4′-oxo-1,3-dihydro-4′H-spiro[indene-2,5′-[1,3]oxazol]-2′-yl)-3H-spiro[2-benzofuran-1,4′-piperidin]-3-one]
7.6 | O=C1N=C(N2CCC3(CC2)OCc2ccccc23)O[C@]12CCc1ccccc12 [Example 19, (−)-2′-(1H,3H-spiro[2-benzofuran-1,4′-piperidin]-1′-yl)-2,3-dihydro-4′H-spiro[indene-1,5′-[1,3]oxazol]-4′-one]
6.6 | O=C1N=C(N2CCC3(CC2)OCc2ccccc23)O[C@@]12CCc1ccccc12 [Example 20, (+)-2′-(1′H,3H-spiro[2-benzofuran-1,4′-piperidin]-1′-yl)-2,3-dihydro-4′H-spiro[indene-1,5′-[1,3]oxazol]-4′-one]
9.1 | Cc1ccc2c(c1)CC1(C2)OC(N2CCC3(CC2)OCc2ccccc23)=NC1=O (stereo not drawn) [Example 21, 5-methyl-2′-(1′H,3H-spiro[2-benzofuran-1,4′-piperidin]-1′-yl)-1,3-dihydro-4′H-spiro[indene-2,5′-[1,3]oxazol]-4′-one]
8.9 | Cc1ccc2c(c1)CC1(C2)OC(N2CCC3(CC2)OC(=O)c2ccccc23)=NC1=O (stereo not drawn) [Example 22, 1′-(5-methyl-4′-oxo-1,3-dihydro-4′H-spiro[indene-2,5′-[1,3]oxazol]-2′-yl)-3H-spiro[2-benzofuran-1,4′-piperidin]-3-one]
7.3 | Cc1ccc2c(c1)C[C@@]1(C2)OC(N2CCC3(CC2)OC(=O)c2ccccc23)=NC1=O [Example 23, (+)-1′-[5-methyl-4′-oxo-1,3-dihydro-4′H-spiro[indene-2,5′-[1,3]oxazol]-2′-yl]-3H-spiro[2-benzofuran-1,4′-piperidin]-3-one]
7.1 | Cc1cc2c(cc1C)CC1(C2)OC(N2CCC3(CC2)OCc2ccccc23)=NC1=O [Example 25, 5,6-dimethyl-2′-(1′H,3H-spiro[2-benzofuran-1,4′-piperidin]-1′-yl)-1,3-dihydro-4′H-spiro[indene-2,5′-[1,3]oxazol]-4′-one]
6.4 | Cc1cc2c(cc1C)CC1(C2)OC(N2CCC3(CC2)OC(=O)c2ccccc23)=NC1=O [Example 26, 1′-(5,6-dimethyl-4′-oxo-1,3-dihydro-4′H-spiro[indene-2,5′-[1,3]oxazol)-2′-yl)-3H-spiro[2-benzofuran-1,4′-piperidin]-3-one]
7.7 | COc1ccc2c(c1)CC1(C2)OC(N2CCC3(CC2)OC(=O)c2ccccc23)=NC1=O (stereo not drawn) [Example 27, 1′-(5-methoxy-4′-oxo-1,3-dihydro-4′H-spiro[indene-2,5′-[1,3]oxazol]-2′-yl)-3H-spiro[2-benzofuran-1,4′-piperidin]-3-one]

Same assay, conditions: membranes of HEK293 cells transiently transfected with human V1a receptor, Ki by Cheng-Prusoff, read-out: pKi hV1a (converted)

Ki | Compound
0.794 nM | O=C1OC2(CCN(C3=NC(=O)[C@]4(CCc5ccccc5C4)O3)CC2)c2ccccc21 (single isomer, unassigned; enantiomer a) [Example 66, 1′-[4′-oxo-3,4-dihydro-1H,4′H-spiro[naphthalene-2,5′-[1,3]oxazol]-2′-yl]-1′H,3H-spiro[2-benzofuran-1,4′-piperidin]-3-one enantiomer A]
3.98 nM | O=C1OC2(CCN(C3=NC(=O)[C@@]4(CCc5ccccc5C4)O3)CC2)c2ccccc21 (single isomer, unassigned; enantiomer b) [Example 67, 1′-[4′-oxo-3,4-dihydro-1H,4′H-spiro[naphthalene-2,5′-[1,3]oxazol]-2′-yl]-1′H,3H-spiro[2-benzofuran-1,4′-piperidin]-3-one enantiomer B]

— US11578077B2, “Spiro-oxazolones” (Hoffmann-La Roche Inc., priority 2013, dated 2023)
